Assay results from patent US8592423B2, “Inhibitors of PDE10” (Bristol-Myers Squibb Company, priority 2011, dated 2013).
Where two headings read alike, the source gives them in different places.

Target: PDE10 (Homo sapiens (Human), UniProt Q9Y233)
Assay: LE_PDE10A inhibition assay (SPA, cAMP hydrolysis)
Format: biochemical
Settings: 3H-cAMP at Km 25 nM
Procedure: LE_PDE10A Inhibition Assay:
The PDE10 inhibition assay in 384-well plates was conducted to identify substances for the inhibition of cyclic nucleotide hydrolysis by the PDE10 enzyme. […] PDE10 activity was measured using Scintillation Proximity Assay (SPA)-based methods. PDE10 catalyses the hydrolysis of the intracellular messenger adenosine […] (cAMP) to the non-cyclic adenosine 5′-monophosphate (AMP). The SPA assay was based upon the selective interaction of the tritiated product with yttrium oxide LEADseeker beads.
The assay buffer contained 25 mM HEPES pH 7.4, 2.5 mM Magnesium Chloride and 0.1% BSA. […] The reaction was terminated by adding 6 μL of 5 mg/mL of yttrium oxide LEADseeker beads. The beads were allowed to settle for 3 hours before plates were read in the LEEDSeaker for 6 minutes. The measured signal ccould be converted to activity relative to an […] control (100%). IC50 values were calculated by using in-house data software and IC50 values were generated by nonlinear regression analysis. (Bristol-Myers Squibb Company, Wallingford, Conn.).

Chain of PDE10 (Q9Y233 whole entry): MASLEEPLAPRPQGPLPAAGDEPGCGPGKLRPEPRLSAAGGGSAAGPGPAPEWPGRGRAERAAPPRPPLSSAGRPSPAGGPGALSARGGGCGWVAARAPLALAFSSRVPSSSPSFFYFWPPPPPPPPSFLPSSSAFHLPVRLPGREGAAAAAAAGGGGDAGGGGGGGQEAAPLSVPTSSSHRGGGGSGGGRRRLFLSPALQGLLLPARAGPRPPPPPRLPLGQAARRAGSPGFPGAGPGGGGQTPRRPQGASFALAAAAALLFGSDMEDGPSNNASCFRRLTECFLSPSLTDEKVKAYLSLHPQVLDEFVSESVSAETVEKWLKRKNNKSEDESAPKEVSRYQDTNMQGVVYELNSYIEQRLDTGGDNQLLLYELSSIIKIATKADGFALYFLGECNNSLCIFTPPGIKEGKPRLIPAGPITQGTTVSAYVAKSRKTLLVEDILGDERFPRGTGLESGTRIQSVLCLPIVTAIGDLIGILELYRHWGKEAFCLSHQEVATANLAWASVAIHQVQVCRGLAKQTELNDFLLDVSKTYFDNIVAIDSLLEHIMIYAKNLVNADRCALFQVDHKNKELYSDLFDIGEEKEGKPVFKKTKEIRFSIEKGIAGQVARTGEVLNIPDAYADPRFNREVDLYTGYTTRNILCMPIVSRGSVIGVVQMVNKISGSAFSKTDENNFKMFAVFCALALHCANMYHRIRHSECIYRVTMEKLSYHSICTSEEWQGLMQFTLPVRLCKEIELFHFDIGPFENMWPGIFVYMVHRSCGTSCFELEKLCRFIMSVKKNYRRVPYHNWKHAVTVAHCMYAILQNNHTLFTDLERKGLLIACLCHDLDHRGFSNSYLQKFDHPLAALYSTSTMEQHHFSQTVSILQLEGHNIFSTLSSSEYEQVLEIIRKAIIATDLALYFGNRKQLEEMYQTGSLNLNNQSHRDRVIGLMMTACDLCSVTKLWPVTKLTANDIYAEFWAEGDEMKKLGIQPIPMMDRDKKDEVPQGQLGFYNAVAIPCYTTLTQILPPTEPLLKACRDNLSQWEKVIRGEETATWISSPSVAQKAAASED

SMILES	IC50 (read-out: Range (IC50)) [nM]	IC50 (read-out: IC50) [nM]
CCn1cc(-c2ccccc2)nc1C1CC1c1nc2c(C)ncc(C)n2n1 (stereo not drawn) [2-(2-(1-Ethyl-4-phenyl-1H-imidazol-2-yl)cyclopropyl)-5,8-dimethyl-[1,2,4]triazolo[1,5-a]pyrazine]	5.1 to 10	–
CCCn1cc(-c2ccccc2)nc1C1CC1c1nc2c(C)ncc(C)n2n1 (stereo not drawn) [5,8-dimethyl-2-(2-(4-phenyl-1-propyl-1H-imidazol-2-yl)cyclopropyl)-[1,2,4]triazolo[1,5-a]pyrazine]	–	6.65
Cc1ncc(C)n2nc(C3CC3c3nc(-c4ccccc4)cn3C)nc12 (racemic) [5,8-Dimethyl-2-(2-(1-methyl-4-phenyl-1H-imidazol-2-yl)cyclopropyl)-[1,2,4]triazolo[1,5-a]pyrazine]	–	1.79
Cc1ncc(C)n2nc(C3CC3c3nc(-c4ccccc4)cn3C)nc12 (single isomer, unassigned) [drawing 16, 5,8-dimethyl-2-(2-(1-methyl-4-phenyl-1H-imidazol-2-yl)cyclopropyl)-[1,2,4]triazolo[1,5-a]pyrazine]	0.8 to 5	–
Cc1ncc(C)n2nc(C3CC3c3nc(-c4ccccc4)cn3C)nc12 (single isomer, unassigned) [drawing 17, 5,8-dimethyl-2-(2-(1-methyl-4-phenyl-1H-imidazol-2-yl)cyclopropyl)-[1,2,4]triazolo[1,5-a]pyrazine]	10.1 to 40	–
Cc1cc(C)n2nc(C3CC3c3nc(-c4ccccc4)cn3C)nc2n1 (stereo not drawn) [5,7-Dimethyl-2-(2-(1-methyl-4-phenyl-1H-imidazol-2-yl)cyclopropyl)-[1,2,4]-triazolo[1,5-a]pyrimidine]	–	14.5
